Measurements from US20240307420A1, “IMPROVED METHODS FOR THE USE OF PSYCHEDELICS” (TRYP Therapeutics Inc., priority 2021, published 2024).
“And” between values parts separate entries of the source, which are not always exact repeats. Equal entries are not always repeated.

Legend:
rats [1] = experiment: Head twitching response (HTR) after one-hour intravenous infusion, video recording; assay type: in vivo, Sprague Dawley rats; conditions: for Time after termination of infusion up to which head twitching was observed: after one hour 10 mg/kg IV infusion
Method: To assess the pharmacodynamics (PD) of intravenously infused psychedelics, animal head-twitching was recorded as an indicator of achieving the dissociative state. Head twitching response (HTR) is used as a surrogate PD marker for the animals achieving or being in the dissociative or psychedelic state (for example, as described in Zhuk et al., Toxins 2015, 7, 1018-1029; Halberstadt et al., J Psychopharmacol. 2011 25(11): 1548-1561). HTR was also used to determine when the end of the dissociative state occurred following discontinuation of the IV infusion.
To assess HTR, a video monitoring system was used to record the animals in this study from discontinuation of the infusion through to the terminal sampling time point (1-hour post infusion). A camera was positioned such that the animals were visible from above. The recording was saved for review and the time of the observed head-twitching behavior, the duration of the observed behavior, and any additional atypical observations were documented.
The number of head-twitching events observed within the 60 minute time period after the one hour intravenous infusion of each of the 3 rats receiving psilocin or psilocybin, were determined from the video recordings. […] Upon termination of the IV infusion of either psilocin or psilocybin, head twitching activity subsided within 50 minutes, supporting the rapid termination of the dissociative or psychedelic, compared to previously reported termination of the dissociative state after an oral administration of psilocybin.

[2] = Plasma psilocin pharmacokinetics during and after one-hour intravenous infusion of psilocin or psilocybin; conditions: for AUC(0-t): AUCT; for concentration at 0.25 h / concentration at 0.5 h / concentration at 1 h / concentration at 2 h / concentration at 4 h / concentration at 6 h / concentration at 8 h: Plasma concentration of psilocin
rats [3] = experiment: Head twitching response in unrestrained rats prior to, during and after 60 minute infusion (separate study); assay type: in vivo; conditions: 10 mg/kg over 60 minutes IV
Method: In a separate study, unrestrained rats were infused with 10 mg/kg psilocybin over a 60 minute period and head twitching response (HTR) was recorded prior to during and after IV administration. HTR was consistently observed in all tested rats, within 5 minutes after initiation of the infusion, and persisted during the 60-minute infusion period. HTR was discontinued in the animals soon after the termination of the infusion, generally within 30 minutes after the termination of the infusion. The results of the HTR supported the more rapid achievement of the dissociative or psychedelic state, coincident with the rise in systemic plasma psilocin levels, and rapid exit from the dissociative or psychedelic state after the termination of infusion (e.g., as assessed in Example 1).

rats [4] = experiment: Von Frey assay (VFA) withdrawal threshold in formalin-induced rat pain model; assay type: in vivo; conditions: contra-lateral paw; single 10 mg/kg IV administration
Excerpt: (§1) Chronic pain in rats was induced by injection of formalin into the hind paw. The rats subsequently were intravenously administered psilocybin, and assessed for changes in pain perception over an extended period of time. The formalin pain model is a translational animal model for chronic nociplastic pain (Vanini G., Sleep 2016; 39(1): 133-42), including fibromyalgia, phantom limb pain or complex regional pain syndrome. In the formalin pain model, in addition to experiencing extra pain in the formalin-injected paw, the animal experiences increased pain perception (i.e., hyperalgesia) in extremities not injected with formalin (e.g., the contra-lateral hind paw compared to the one injected with formalin). The pain perception was measured in the contra-lateral paw to assess the potential benefit of psychedelics in nociplastic pain disorders. Reduction in pain perception and the duration of pain reduction were examined following intravenous bolus administration of 10 mg/kg psilocybin, administered over 3 minutes.
Two types of pain perception were measured. First, the Von Frey assay (VFA) was used to measure pain due to pressure exerted on the extremity (i.e., mechanical allodynia). Specifically. […] The minimum amount of force required to evoke a paw withdrawal response in each trial was determined to be the minimum withdrawal threshold for that animal trial. […]

rats [5] = experiment: Hot Plate assay (HPA) withdrawal latency in formalin-induced rat pain model; assay type: in vivo; conditions: 52.5° C. hot plate; single 10 mg/kg IV administration
Excerpt: as §1, with “Reduction in pain perception and the duration of pain reduction were examined following intravenous bolus administration of 10 mg/kg psilocybin, administered over 3 minutes.” left out
The second pain measurement was based on the Hot Plate Assay (HPA), which measures the withdrawal latency at temperatures that register a painful response (i.e., thermal hyperalgesia). […] Once heated, each animal was placed in cylindrical tube on the hot plate and the latency to lick a hind paw or observed overt escape behavior (e.g., attempt to jump out of cylinder) was recorded (Ingram et al., Neruopsychopharmacology 2007; 32(3):600-6; Gunn et al., J Pain 2011; 12(2):222-7; Hestehave et al., Lab Anim 2016; 51(3):264-72). […]

[6] = single oral administration of psilocybin at 0.225 mg/kg; cited from earlier work
[7] = plasma psilocin, individual rats, 10 mg/kg psilocin one-hour IV infusion

CN(C)CCc1c[nH]c2cccc(O)c12 [psilocin, 4-hydroxy-N,N-dimethyltryptamine]
Rats in which head-twitching was observed (rats [1]; 60 minute period after one hour 10 mg/kg IV infusion): 2 of 3
Time after termination of infusion up to which head twitching was observed (rats [1]): ≤ 16 min
Plasma concentration of psilocin ([2]; individual rats, 10 mg/kg psilocin one-hour IV infusion, sampling time 0.25 h): 1031.8 ng/mL and 982.7 ng/mL
Plasma concentration of psilocin ([2]; individual rats, 10 mg/kg psilocin one-hour IV infusion, sampling time 0.5 h): 1731.6 ng/mL and 1489.3 ng/mL
Plasma concentration of psilocin ([2]; individual rats, 10 mg/kg psilocin one-hour IV infusion, sampling time 1 h): 2159.5 ng/mL and 1623.2 ng/mL
Plasma concentration of psilocin ([2]; individual rats, 10 mg/kg psilocin one-hour IV infusion, sampling time 2 h): 965.6 ng/mL and 740.4 ng/mL
Plasma concentration of psilocin ([2]; individual rats, 10 mg/kg psilocin one-hour IV infusion, sampling time 4 h): 249.1 ng/mL and 231.7 ng/mL
Plasma concentration of psilocin ([2]; individual rats, 10 mg/kg psilocin one-hour IV infusion, sampling time 6 h): 80.2 ng/mL and 59.6 ng/mL
Plasma concentration of psilocin ([2]; individual rats, 10 mg/kg psilocin one-hour IV infusion, sampling time 8 h): 22.5 ng/mL and 26.8 ng/mL
Tmax ([2]; male, Sprague Dawley, rat, plasma, iv, 10 mg/kg): 1 h
AUC(0-t) ([2]; male, Sprague Dawley, rat, plasma, iv, 10 mg/kg, plasma psilocin, individual rats, 10 mg/kg psilocin one-hour IV infusion): 3550 ng·h/mL
AUC(0-t) ([2]; male, Sprague Dawley, rat, plasma, iv, 10 mg/kg, plasma psilocin, mean of 3 rats, 10 mg/kg psilocin one-hour IV infusion): 3980 ng·h/mL
Cmax ([2]; male, Sprague Dawley, rat, plasma, iv, 10 mg/kg, Cmax, plasma psilocin, individual rats, 10 mg/kg psilocin one-hour IV infusion): 1610 ng/mL
Cmax ([2]; male, Sprague Dawley, rat, plasma, iv, 10 mg/kg, Cmax, plasma psilocin, mean of 3 rats, 10 mg/kg psilocin one-hour IV infusion): 1800 ng/mL
concentration at 0.25 h ([2]; male, Sprague Dawley, rat, plasma, iv, 10 mg/kg, individual rats, 10 mg/kg psilocin one-hour IV infusion, sampling time 0.25 h): 1070 ng/mL
concentration at 0.5 h ([2]; male, Sprague Dawley, rat, plasma, iv, 10 mg/kg, individual rats, 10 mg/kg psilocin one-hour IV infusion, sampling time 0.5 h): 1510 ng/mL
concentration at 1 h ([2]; male, Sprague Dawley, rat, plasma, iv, 10 mg/kg, individual rats, 10 mg/kg psilocin one-hour IV infusion, sampling time 1 h): 1610 ng/mL
concentration at 2 h ([2]; male, Sprague Dawley, rat, plasma, iv, 10 mg/kg, individual rats, 10 mg/kg psilocin one-hour IV infusion, sampling time 2 h): 714 ng/mL
concentration at 4 h ([2]; male, Sprague Dawley, rat, plasma, iv, 10 mg/kg, individual rats, 10 mg/kg psilocin one-hour IV infusion, sampling time 4 h): 164 ng/mL
concentration at 6 h ([2]; male, Sprague Dawley, rat, plasma, iv, 10 mg/kg, individual rats, 10 mg/kg psilocin one-hour IV infusion, sampling time 6 h): 47.7 ng/mL
concentration at 8 h ([2]; male, Sprague Dawley, rat, plasma, iv, 10 mg/kg, individual rats, 10 mg/kg psilocin one-hour IV infusion, sampling time 8 h): 17.3 ng/mL
concentration at 0.25 h ([2]; male, Sprague Dawley, rat, plasma, iv, 10 mg/kg, mean of 3 rats, 10 mg/kg psilocin one-hour IV infusion, sampling time 0.25 h): 1030 ng/mL
concentration at 0.5 h ([2]; male, Sprague Dawley, rat, plasma, iv, 10 mg/kg, mean of 3 rats, 10 mg/kg psilocin one-hour IV infusion, sampling time 0.5 h): 1580 ng/mL
concentration at 1 h ([2]; male, Sprague Dawley, rat, plasma, iv, 10 mg/kg, mean of 3 rats, 10 mg/kg psilocin one-hour IV infusion, sampling time 1 h): 1800 ng/mL
concentration at 2 h ([2]; male, Sprague Dawley, rat, plasma, iv, 10 mg/kg, mean of 3 rats, 10 mg/kg psilocin one-hour IV infusion, sampling time 2 h): 807 ng/mL
concentration at 4 h ([2]; male, Sprague Dawley, rat, plasma, iv, 10 mg/kg, mean of 3 rats, 10 mg/kg psilocin one-hour IV infusion, sampling time 4 h): 215 ng/mL
concentration at 6 h ([2]; male, Sprague Dawley, rat, plasma, iv, 10 mg/kg, mean of 3 rats, 10 mg/kg psilocin one-hour IV infusion, sampling time 6 h): 62.5 ng/mL
concentration at 8 h ([2]; male, Sprague Dawley, rat, plasma, iv, 10 mg/kg, mean of 3 rats, 10 mg/kg psilocin one-hour IV infusion, sampling time 8 h): 22.2 ng/mL
AUCT [2, 7]: 4656.4 ng·h/mL and 3741.6 ng·h/mL
Cmax [2, 7]: 2159.5 ng/mL and 1623.2 ng/mL

CN(C)CCc1c[nH]c2cccc(OP(=O)(O)O)c12 [psilocybin, [3-(2-dimethylaminoethyl)-1H-indol-4-yl] dihydrogen phosphate]
Time after termination of infusion up to which head twitching was observed (rats [1]): up to 50 minutes
Time to discontinuation of head twitching response after termination of the infusion (rats [3]): ≤ 30 min
Time to head twitching response after initiation of the infusion (rats [3]; all tested rats): ≤ 5 min
Duration of statistically significant increase in VFA withdrawal threshold (rats [4]): 3 weeks
Duration of improved pain sensitivity response (HPA withdrawal latency) compared to saline control (rats [5]): at least 4 weeks
Average peak concentration of psilocin in plasma [6]: 8.2+/−2.8 ng psilocin/ml plasma
Time of peak plasma levels of psilocin [6]: 105 ± 37 min
